Measured values: publication PMC9863266, “Preclinical Studies and Drug Combination of Low-Cost Molecules for Chagas Disease” (Pharmaceuticals, 2022)
pIC50: −log10 of the molar value. “And” between values parts separate entries of the source, which are not always exact repeats. Equal entries are not always repeated.

Assays:
[1] = test system: CL Brener clone of T. cruzi; assay: Acute murine model of Chagas disease; format: in vivo, Balb/c mice
Procedure: Three-month-old Balb/c mice were infected (day 0) with infected blood from mice at the beginning of the peak of parasitemia (parasitemia greater than 1.0 × 10^6 p /mL with the CL Brener clone of T. cruzi) by intraperitoneal injection (10,000 parasites per mouse). Parasitemia was followed from the fourth-day post-infection until all the mice in the group were positive. Parasitemia measurements were performed by optical microscopy. Once all the mice were positive, the treatment was started. The treatment lasted 15 consecutive days; the compounds were administered orally by intragastric cannula once a day. Parasitemia was monitored weekly. At 30 and 60 days, 200 μL of blood was extracted from the mouse tail for serological tests (ELISA test) to detect antigens of T. cruzi. Day 60 was the end of the experiment, and the animals were sacrificed.
Hemoconcentration and counting micromethod: the mice were bled by pricking the tail and taking the blood with capillaries. One capillary per mouse draws 8-18 mm in height of blood. The millimeters were converted to μL by a table previously described and calibrated in the laboratory. The capillaries were centrifuged at 3000× g for 40 s. The parasitic load in the capillary was observed by optical microscopy (OM) in the capillary: the red blood cells (GR) were distributed at one end and the supernatant serum at the other end, at the interface is the trypomastigotes. Then, the capillary was cut a few mm on the interface towards the GR part and its content was spread on a slide, covered with a coverslip. Then, the total number of parasites in 50 fields (OM at 40× magnification) was counted. This sum was then multiplied by 1/50 to obtain the average number of trypomastigotes per field, corresponding to the number of trypanosomes per 5 mm^3. This was then compared to the samples from control animals. The mean and standard deviation were calculated by using OriginPro9 and GraphPad Prism 5. Comparisons of parasite suppression were completed by the analysis of variance (two-way ANOVA as a […] statistical test).

[2] = test system: Leishmania infantum; set-up: method as in earlier work; conditions: amastigotes; read-out: In vitro anti-Leishmania infantum (visceral) activity (IC50); cited from earlier work
[3] = test system: Leishmania spp (cutaneous) promastigotes; set-up: method as in earlier work; conditions: read-out: In vitro anti-Leishmania spp (cutaneous) activity (IC50); cited from earlier work
[4] = test system: Salmonella typhimurium strains TA98, T100, T102, TA1535, and TA1537; conditions: cited from earlier work
[5] = test system: CD-1 mice; conditions: mouse, in vivo; cited from earlier work
[6] = test system: zebrafish embryos; set-up: method as in earlier work; conditions: cited from earlier work
[7] = test system: cruzipain; conditions: cited from earlier work
[8] = test system: T. cruzi amastigotes; set-up: method as in earlier work; conditions: read-out: In vitro anti-T. cruzi activity (multiple strains) (IC50); cited from earlier work
[9] = test system: CD1 and Balb/c mice; set-up: method as in earlier work; conditions: cited from earlier work
[10] = test system: epimastigote form of T. cruzi, Tulahuen 2 strain; assay: Mechanism of death by flow cytometry, AV/IP labeling; format: cell-based; conditions: 24 h; 20 × IC50
Procedure: Parasites were immediately analyzed on an Accuri C6 flow cytometer (BD Bioscience, Franklin Lakes, New Jersey, U.S.). […] Ten thousand events were analyzed for each of the two independent experiments. Data were analyzed using BD CSampler software (BD Bioscience). Untreated parasites were used as a control. For the positive control of apoptosis and necrosis, the parasites were treated with hydrogen peroxide (H2O2) 50 µM and 100 µM for 2.5 h, respectively. These single-spot controls were used to calculate color compensation for flow cytometry.

[11] = test system: CD-1 mice; assay: Micronucleus test in mice (genotoxicity); conditions: positive control, 50 mg/kg intraperitoneal, single dose 24 h before sacrifice
Procedure: The protocol was approved by the Paraguayan ethics committee for animal experimentation (No. IORG0010088). […] The treatment of each group was repeated five times, totaling 5 animals per concentration. The route used in the administration of the negative control and the compound (groups I and II) was oral, using an esophageal cannula and in group III the route was intraperitoneal. The intervention was carried out in two doses: 24 and 48 h before sacrifice, except for cyclophosphamide, which was administered in a single dose, 24 h before sacrifice. At the end of the experiment, the femurs were harvested, and the red bone marrow was removed with fetal bovine serum, kept at 37 °C. […] Samples were stained with 4 % Giemsa stain for 3 min and analyzed under an immersion light microscope. For each treated animal, 1000 polychromatic erythrocytes (EPCs) were counted, including those that presented micronucleus (EPCMNs). The ratio of polychromatic erythrocytes (EPC) vs. normochromatic erythrocytes (ENC), upon counting 100 cells, was also evaluated. The proportion of EPCMNs was calculated for each group, and the treated groups with the compound and cyclophosphamide were compared with the negative control group. The statistical analysis was carried out from the individual values of the evaluated parameters, calculating the mean values and their standard deviations for each of the experimental groups. […]

O=C(Cn1ccnc1[N+](=O)[O-])NCc1ccccc1 [Bnz, Benznidazole]
Days Post-Infection of the First Parasitemia Peak ([1]; 10 µmoles/kg/day): 15 days
Reduction in the Parasitemia Peak (%) ([1]; 10 µmoles/kg/day): 80%
Survival (%) ([1]; 10 µmoles/kg/day): 100%
Days Post-Infection of the First Parasitemia Peak ([1]; 38 µmoles/kg/day): 15 days
Reduction in the Parasitemia Peak (%) ([1]; 38 µmoles/kg/day): 90%
Survival (%) ([1]; 38 µmoles/kg/day): 100%
Days Post-Infection of the First Parasitemia Peak ([1]; 48 µmoles/kg/day): 43 days
Reduction in the Parasitemia Peak (%) ([1]; 48 µmoles/kg/day): 95%
Survival (%) ([1]; 48 µmoles/kg/day): 100%

CC(=NNC(N)=S)[C@H]1CC[C@H]2[C@@H]3CC=C4C[C@@H](O)CC[C@]4(C)[C@H]3CC[C@]12C [Compound 1260, 1-(3β-Hydroxy-pregn-5-ene-20E-ylydene)thiosemicarbazide]
pIC50 [2]: > 6.70
pIC50 [3]: > 4.70
Ames test (mutagenicity) [4]: NO
Micronucleus test in mice (Genotoxicity) [5]: NO
Teratogenicity in zebrafish (LD50) [6]: > 15 µM
Cruzipain inhibitor (known) [7]: not an inhibitor of cruzipain
pIC50 [8]: 7.00
Acute oral toxicity in mice (Up and Down test, LD50) [9]: > 2000 mg/kg of body weight

CC1CS(=O)(=O)CCN1/N=C/c1ccc([N+](=O)[O-])o1 (stereo not shown) [Nfx, Nifurtimox, reference compound]
AV/IP labeling Q1-UR (double AV+/IP+ labeling) [10]: 59%

O=P1(N(CCCl)CCCl)NCCCO1 (stereo not shown) [cyclophosphamide, reference compound]
Micronucleus test in mice (Genotoxicity) (mean of MnPE ±SD) [11]: 36 ± 2 MnPE and 36 ± 2 (cyclophosphamide) MnPE
